Reference: paper PMC5681435, “Differential Regulation of G1 CDK Complexes by the Hsp90-Cdc37 Chaperone System” (Cell Reports, 2017)
Entries after “also recorded” stand apart in the source; their conditions may differ.

What was measured:
CDK4-cyclin D = tested on: CDK4-cyclin D; parameters: method as in Sherr et al., 2016; settings: ref Sherr et al., 2016; read-out: IC50 against CDK4-cyclin D; cited from earlier work
CDK6-cyclin D = tested on: CDK6-cyclin D; parameters: method as in Sherr et al., 2016; settings: ref Sherr et al., 2016; read-out: IC50 against CDK6-cyclin D; cited from earlier work
CDK4-Cdc37 complex = target: T1, CDK4-Cdc37 complex (Homo sapiens, UniProt P11802); type: binding; settings: HTRF competition, 8 nM GSTCDK4, 150 nM C-Avi Cdc37
T1 construct: Full length human CDK4 and CDK6 with an N-terminal; made in house; host or cells: GSTCDK4: Sf9 insect cells; Cdc37: E. coli
T1 sequence (P11802 whole entry, one chain of several): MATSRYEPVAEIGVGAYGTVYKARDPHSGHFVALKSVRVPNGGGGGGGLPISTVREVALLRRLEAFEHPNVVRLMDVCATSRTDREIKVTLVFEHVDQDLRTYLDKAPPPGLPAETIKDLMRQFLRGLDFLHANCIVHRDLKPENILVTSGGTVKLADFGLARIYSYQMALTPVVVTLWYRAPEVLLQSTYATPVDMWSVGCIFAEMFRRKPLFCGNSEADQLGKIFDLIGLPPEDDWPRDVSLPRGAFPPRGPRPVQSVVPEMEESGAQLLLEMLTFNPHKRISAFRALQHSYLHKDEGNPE

CDK4 = target: T2, CDK4 (Homo sapiens, UniProt P11802); assay: HTRF direct binding to GSTCDK4; settings: GSTCDK4 10 nM, read-out: Dissociation constant for binding to CDK4
T2 construct: Full length human CDK4 and CDK6 with an N-terminal; made in house; host or cells: Sf9 insect cells (baculovirus, MultiBac)
T2 sequence (P11802 whole entry): as the sequence (P11802 whole entry, one chain of several) above
Protocol: (§1) exchange chromatography (HiTrap Q, GE Healthcare). Protein concentrations were determined by NanoDrop2000 UV-Vis Spectrophotometer (Thermo Scientific) or using a Shimadzu UV1800 spectrophotometer. A representative SDS-polyacrylamide gel stained with silver is shown in Figure S4 to illustrate the purity of the GSTCDK4 and GSTCDK6 […]
(§2) Avi-tagged proteins (Cdc37, p16INK4a, p16INK4a mutants, Kcyclin and Vcyclin) were biotinylated to provide an affinity tag for the streptavidin-tagged XL665 dye. A substantial amount of biotinylated protein was purified from the recombinant E. coli cells as a result of endogenous BirA activity. Proteins were further modified by incubating 40 µM of the Avi-tagged protein with 10 µg BirA in biotinylation buffer (50 mM Bicine pH 8.3, 10 mM ATP, 10 mM MgOAc, 50 µM d-biotin) at 30°C for 60 minutes. […] The extent of protein biotinylation was monitored by pull downs using High Capacity NeutrAvidin® Agarose Resin (Thermo […]
(§3) To assemble the various complexes, 15 µg of Cdc37 was mixed with a molar equivalent of CDK6, and incubated for 1hour at 4 °C. […] The reactions were stopped by addition of 2 x LDS buffer and analysed by SDS-PAGE and subsequent western blotting using an anti-phosphorylated S780 antibody […]
(§4) Homogenous time-resolved fluorescence (HTRF) […]

CDK6 = target: T3, CDK6 (Homo sapiens, UniProt Q00534); assay: HTRF direct binding to GSTCDK6; settings: GSTCDK6 10 nM, read-out: Dissociation constant for binding to CDK6
T3 construct: Full length human CDK4 and CDK6 with an N-terminal; made in house; host or cells: Sf9 insect cells (baculovirus, MultiBac)
T3 sequence (Q00534 whole entry): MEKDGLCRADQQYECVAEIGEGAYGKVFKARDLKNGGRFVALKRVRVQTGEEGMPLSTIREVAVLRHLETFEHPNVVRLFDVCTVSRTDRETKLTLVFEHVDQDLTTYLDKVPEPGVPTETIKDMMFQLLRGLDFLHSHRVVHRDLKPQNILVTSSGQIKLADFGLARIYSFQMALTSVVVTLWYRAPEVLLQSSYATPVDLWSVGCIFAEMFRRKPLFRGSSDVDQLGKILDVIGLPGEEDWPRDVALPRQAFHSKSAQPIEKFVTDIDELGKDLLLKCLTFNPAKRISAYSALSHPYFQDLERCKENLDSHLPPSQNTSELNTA
Protocol: as §1, §2, §3, §4

CDK2 = target: T4, CDK2 (Homo sapiens, UniProt P24941); assay: HTRF direct binding to GSTCDK2; settings: GSTCDK2 25 nM
T4 construct: made in house; host or cells: E. coli BL21STAR(DE3)
Protocol: as §1, §2, §3, §4

[1] = target: B-Raf^V600E kinase domain; parameters: method as in Polier et al., 2013; settings: isothermal titration calorimetry; ref Polier et al., 2013; read-out: Affinity of Cdc37-B-Raf^V600E kinase domain interaction; cited from earlier work
[2] = target: T5, CDK4-cyclin D1/D3 complexes (Homo sapiens, UniProt P11802); assay: HTRF association of Avi-tagged Cdc37 with GSTCDK4-cyclin D complexes with or without p21M/p27M; type: binding; settings: ternary complex, Figure 4E
T5 construct: Full length human CDK4 and CDK6 with an N-terminal; made in house; host or cells: Sf9 insect cells (co-expression)
T5 sequence (P11802 whole entry): as the sequence (P11802 whole entry, one chain of several) above
T5 sequence (P30281 whole entry partner): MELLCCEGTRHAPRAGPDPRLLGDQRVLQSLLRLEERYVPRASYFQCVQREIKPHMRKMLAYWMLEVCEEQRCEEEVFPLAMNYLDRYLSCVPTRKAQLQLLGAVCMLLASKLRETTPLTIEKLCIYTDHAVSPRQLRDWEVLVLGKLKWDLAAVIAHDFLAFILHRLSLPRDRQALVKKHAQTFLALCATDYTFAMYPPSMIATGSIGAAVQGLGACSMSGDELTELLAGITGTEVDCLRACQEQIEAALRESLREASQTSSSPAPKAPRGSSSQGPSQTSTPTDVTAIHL
Protocol: To find out whether the CIP/KIP CKIs can cooperate with cyclin D isoforms to generate a stable ternary CDK4 complex that is resistant to displacement by Cdc37, we next purified GSTCDK4-cyclin D1 and D3 and GSTCDK6-cyclin D1 and D3 complexes assembled in insect cells, incubated them with excess p21M or p27M, and isolated the complexes by size-exclusion chromatography. We then used the HTRF assay to measure the association of Avi-tagged Cdc37 with GSTCDK4 and GSTCDK6, which were presented unpartnered, in a binary complex with cyclin D1 or cyclin D3, or in a ternary complex with cyclin D1 or D3 and p21M, or p27M. As shown previously, Cdc37 binds to monomeric CDK4 (Figures 4C and 4E, blue lines) and effectively displaces cyclin D1 or cyclin D3 (Figures 4C and 4E, red lines). […]
as §1
Avi-tagged proteins (Cdc37, p16INK4a, p16INK4a mutants, Kcyclin and Vcyclin) were biotinylated to provide an affinity tag for the streptavidin-tagged XL665 dye. […] The extent of protein biotinylation was monitored by pull downs using High Capacity NeutrAvidin® Agarose Resin (Thermo […]

Row | Molecule | IC50 (CDK4-cyclin D) [nM] | IC50 (CDK6-cyclin D) [nM] | Displacement of Cdc37 from CDK4-Cdc37 complex (in words) (CDK4-Cdc37 complex) | other results
1 | CN(C)C(=O)c1cc2cnc(Nc3ccc(N4CCNCC4)cn3)nc2n1C1CCCC1 [LEE011, ribociclib] | 10 | 39 |  | 
2 | CCN1CCN(Cc2ccc(Nc3ncc(F)c(-c4cc(F)c5nc(C)n(C(C)C)c5c4)n3)nc2)CC1 [LY2835219, abemaciclib] | 2 | 5 | unable to derive reproducible inhibition curves | 
3 | CC(=O)c1c(C)c2cnc(Nc3ccc(N4CCNCC4)cn3)nc2n(C2CCCC2)c1=O [PD0332991, palbociclib] | 11 | 15 |  | 
4 | Cdc37: human Hsp90 adaptor co-chaperone Cdc37, recombinant, Avi- or FLAG-tagged |  |  |  | Kd (CDK4): 92 ± 29 nM; Kd (CDK6): 460 ± 230 nM; Binding to CDK2 (CDK2): not bind to CDK2; also recorded: no interaction could be detected; Kd [1]: ~200 nM
5 | p21M: p21CIP1 fragment residues 1–87 |  |  | can displace | Effect of addition to CDK4-cyclin D3 on Cdc37 binding [2]: prevent Cdc37 from binding
6 | p21S: p21CIP1 fragment residues 9–87 |  |  | can displace | 
